Patent publication US6399629B1, “Efflux pump inhibitors” (priority 1998, dated 2002)

Test system: Pseudomonas aeruginosa PAM1001
Assay: checkerboard assay (broth microdilution): levofloxacin MIC in presence of efflux pump inhibitor
Assay type: cell-based
Method: For compounds labeled with the prefix ‘M’, potentiation effect is observed by the reduction of the minimum inhibitory concentration of levofloxacin in the presence of the experimental efflux pump inhibitor. The activity of efflux pump inhibitors (EPI) in combination with fluoroquinolones, such as levofloxacin, is assessed by the checkerboard assay (Antimicrobial Combinations. In Antibiotics in Laboratory Medicine, Ed. Victor Lorian, M.D., Fourth edition, 1996, pp 333-338) using broth microdilution method performed as recommended by the National Committee for Clinical Laboratory Standards (1997). Methods for Dilution of Antimicrobial Susceptibility Tests for Bacteria That Grow Aerobically—Fourth Edition; Approved Standard. NCCLS Document M7-A4, Vol 17 No.2). The test organism used is Pseudomonas aeruginosa PAM1001. […] The compounds tabulated below are representative of the described invention.
In these assays, multiple dilutions of two drugs, namely the EPI and levofloxacin, are being tested, alone and in combination, at concentrations equal to, above and below their respective minimal inhibitory concentrations (MICs). In the case of EPI, most of these compounds are devoid of intrinsic antimicrobial activity and are tested up to the maximum concentration of 40 μg/mL. The MIC of levofloxacin against P. aeruginosa PAM1001 is 4 μg/mL.
The EPI tested are readily soluble in water and stock solutions are prepared at a final concentration of 2 mg/mL. Stock solutions are further diluted, according to the needs of a particular assay, in Mueller Hinton Broth (MHB). Stock solution can be stored at −80° C. Quinolones are solubilized according to the instructions of the manufacturers, at a concentration of 1 mg/mL. They are then further diluted in MHB. Stock solution can be stored at −80° C.
The checkerboard assay is performed in microtiter plates. Levofloxacin is diluted in the x axis, each column containing a single concentration of levofloxacin. The EPI is diluted in the y axis, each row containing an equal concentration of EPI. The result of these manipulations is that each well of the microtiter plate contains a unique combination of concentrations of the two agents. Each EPI are tested independently.
The assay is performed in MHB with a final bacterial inoculum of 5×10^5 CFU/mL (from an early-log phase culture). Microtiter plates are incubated during 20 h at 35° C. and are read using a microtiter plate reader (Molecular Devices) at 650 nm as well as visual observation using a microtiterplate reading mirror.

| Structure (SMILES) | Levofloxacin MIC Against P. aerugiuosa PAM1001 in Presence of Efflux Pump Inhibitor (EPI), Minimum Inhibitory Concentration (EPI Conc. 0 μg/mL) [µg/mL] | Levofloxacin MIC Against P. aerugiuosa PAM1001 in Presence of Efflux Pump Inhibitor (EPI), Minimum Inhibitory Concentration (EPI Conc. 0.625 μg/mL) [µg/mL] | Levofloxacin MIC Against P. aerugiuosa PAM1001 in Presence of Efflux Pump Inhibitor (EPI), Minimum Inhibitory Concentration (EPI Conc. 1.25 μg/mL) [µg/mL] | Levofloxacin MIC Against P. aerugiuosa PAM1001 in Presence of Efflux Pump Inhibitor (EPI), Minimum Inhibitory Concentration (EPI Conc. 2.5 μg/mL) [µg/mL] | Levofloxacin MIC Against P. aerugiuosa PAM1001 in Presence of Efflux Pump Inhibitor (EPI), Minimum Inhibitory Concentration (EPI Conc. 5 μg/ mL) [µg/mL] | Levofloxacin MIC Against P. aerugiuosa PAM1001 in Presence of Efflux Pump Inhibitor (EPI), Minimum Inhibitory Concentration (EPI Conc. 10 μg/mL) [µg/mL] | Levofloxacin MIC Against P. aerugiuosa PAM1001 in Presence of Efflux Pump Inhibitor (EPI), Minimum Inhibitory Concentration (EPI Conc. 20 μg/mL) [µg/mL] | Levofloxacin MIC Against P. aerugiuosa PAM1001 in Presence of Efflux Pump Inhibitor (EPI), Minimum Inhibitory Concentration (EPI Conc. 40 μg/mL) [µg/mL] |
| --- | --- | --- | --- | --- | --- | --- | --- | --- |
| Cc1cc2nc(C(O)[C@@H](CCc3ccccc3)NC(=O)[C@@H]3C[C@@H](NC(=O)CN)CN3)oc2cc1C (mixture of isomers) [Compound M64, (2S,4R)-4-(2-Aminoacetamido)-N-[(1R)-1-[(RS)-(5,6-dimethyl-2-benzoxazoly)hydroxymethyl]-3-pheylpropyl]-2-pyrrolidinecarboxamide] | 4 | 4 | 4 | 4 | 4 | 4 | 4 | 0.015 |
| Cc1cc2nc(C(O)[C@@H](CCc3ccccc3)NC(=O)[C@@H]3C[C@@H](NC(=O)[C@@H](C)N)CN3)oc2cc1C (mixture of isomers) [Compound M65, (2S,4R)-4-[(2R)-2-Aminopropionamido]-N-[(1R)-1-[(RS)-(5,6-dimethyl-2-benzoxaaolyl)hydroxymethyl]-3-phenylpropyl]-2-pyrrolidinecarboxamide] | 4 | 4 | 4 | 4 | 4 | 4 | 0.06 | 0.015 |
| Cc1cc2nc(C(O)[C@@H](CCc3ccccc3)NC(=O)[C@H]3C[C@H](NC(=O)[C@@H](C)N)CN3)oc2cc1C (mixture of isomers) [Compound M66, (2R,4S)-4-[(2R)-2-Aminopropionamido]-N-[(1R)-1-[(RS)-(5,6-dimethyl-2-benzoxaaolyl)hydroxymethyl]-3-phenylpropyl]-2-pyrrolidinecarboxamide] | 4 | 4 | 4 | 4 | 4 | 0.125 | 0.015 | 0.015 |
| CC(C)(C)c1ccc2oc(C(O)[C@@H](CCc3ccccc3)NC(=O)[C@H]3C[C@H](CN)CN3)nc2c1 (mixture of isomers) [Compound M68] | 4 | 4 | 4 | 4 | 4 | 4 | 0.5 | 0.015 |
| NCCCC1CN[C@H](C(=O)N[C@H](CCc2ccccc2)C(=O)Nc2cnc3ccccc3c2)C1 (mixture of isomers) [Compound M93, (2S,4RS)-4-(3-Aminopropyl)-N-[(1R)-3-phenyl-1-(3-quiolylcarbamoyl)propyl]-2-pyrrolidinecarboxamide] | 4 | 4 | 2 | 0.25 | 0.125 | 0.015 | 0.015 | 0.008 |
| NCC(=O)N[C@@H]1CN[C@@H](C(=O)N[C@H](CCc2ccccc2)C(=O)Nc2cnc3ccccc3c2)C1 [Compound M1, (2R,4S)-4-(2-Amionoacetamido)-N-[(1R-)-3-phenyl-1-(3-quinolylcarbamoyl)propyl]-2-pyrrolidinecarboxamide] | 4 | 4 | 4 | 4 | 2 | 0.06 | 0.015 | 0.015 |
| NCC(=O)N[C@@H]1CN[C@@H](C(=O)N[C@H](CCc2ccccc2)C(=O)NCCCc2ccccc2)C1 [Compound M2] | 4 | 4 | 4 | 4 | 2 | 2 | 0.25 | 0.125 |
| CC(N)C(=O)N[C@H]1CN[C@H](C(=O)N[C@H](CCc2ccccc2)C(=O)Nc2cnc3ccccc3c2)C1 (stereo partly drawn) [Compound M4, (2S,4R)-4-(2-Aminopropionamido]-N-[(1R)-3-pheyl-1-(3-quinolylcarbamoyl)propyl]-2-pyrrolidinecarboxamide] | 4 | 4 | 4 | 4 | 2 | 2 | 1 | 0.015 |
| NCCC(=O)N[C@H]1CN[C@H](C(=O)N[C@H](CCc2ccccc2)C(=O)Nc2cnc3ccccc3c2)C1 [Compound M6, (2S,4R)-4-[3-(Aminopropionamido])-N-[(1R)-3-phenyl-1-(3-quinolylcarbamoyl)propyl]-2-pyrrolidinecarboxamide] | 4 | 4 | 4 | 4 | 4 | 2 | 0.06 | 0.015 |
